# Test results: ChEMBL document CHEMBL5113441, “Exploration of 4-(1H-indol-3-yl)cyclohex-3-en-1-amine analogues as HDAC inhibitors: Design, synthesis, biological evaluation and modelling studies” (Bioorg Med Chem Lett, 2022)
# The source made the active and inactive calls. The calls are words filed in the database; no cut-off is given here.
# Key:
# SW480 = test: Antiproliferative activity against human SW480 cells measured after 72 hrs; assay type: functional, cell-based; conditions: SW480, 72 h
# HCT-116 [1] = test: Antiproliferative activity against human HCT-116 cells measured after 72 hrs; assay type: functional, cell-based; conditions: HCT-116, 72 h
# A549 = test: Antiproliferative activity against human A549 cells measured after 72 hrs; assay type: functional, cell-based; conditions: A549, 72 h
# MCF7 = test: Antiproliferative activity against human MCF7 cells measured after 72 hrs; assay type: functional, cell-based; conditions: MCF7, 72 h
# HCT-116 [2] = test: Induction of apoptosis in human HCT-116 cells assessed as apoptotic cells at 100 nM measured after 48 hrs by Annexin-FITC/propidium iodide staining based flow cytometry relative to control; assay type: functional
# HCT-116 [3] = test: Inhibition of colony formation in human HCT-116 cells; assay type: functional, cell-based; conditions: dose 50-200 nM, DDE = dose-dependent effect
# Homo sapiens [4] = organism: Homo sapiens; test: Selectivity ratio of IC50 for HDAC6 (unknown origin) to IC50 for HDAC1 (unknown origin)
# Histone deacetylase 1 = Histone deacetylase 1 (Homo sapiens, UniProt Q13547); test: Inhibition of HDAC1 (unknown origin)
# Chain of Histone deacetylase 1 (Q13547 whole entry): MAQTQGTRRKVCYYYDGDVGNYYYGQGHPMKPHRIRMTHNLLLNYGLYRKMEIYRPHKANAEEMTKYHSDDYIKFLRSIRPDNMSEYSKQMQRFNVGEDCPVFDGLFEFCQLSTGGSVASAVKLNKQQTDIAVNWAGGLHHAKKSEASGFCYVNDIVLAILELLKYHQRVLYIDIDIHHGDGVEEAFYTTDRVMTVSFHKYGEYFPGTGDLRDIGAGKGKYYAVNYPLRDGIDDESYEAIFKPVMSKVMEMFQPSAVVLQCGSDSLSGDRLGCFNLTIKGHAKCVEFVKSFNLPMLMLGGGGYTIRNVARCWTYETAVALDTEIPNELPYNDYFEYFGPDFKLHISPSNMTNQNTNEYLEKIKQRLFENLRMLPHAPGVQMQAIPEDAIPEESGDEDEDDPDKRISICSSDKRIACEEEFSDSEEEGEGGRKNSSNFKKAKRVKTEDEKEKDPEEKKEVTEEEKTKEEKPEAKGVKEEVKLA
# HCT-116 [5] = test: Induction of apoptosis in human HCT-116 cells assessed as apoptotic cells at 200 nM measured after 48 hrs by Annexin-FITC/propidium iodide staining based flow cytometry relative to control; assay type: functional
# HCT-116 [6] = test: Cell cycle arrest in human HCT-116 cells assessed as increase in accumulation at G2/M phase measured after 48 hrs by propidium iodide staining based flow cytometry; assay type: functional; conditions: dose 50-200 nM, DDE = dose-dependent effect
# HCT-116 [7] = test: Antimigratory activity against human HCT-116 cells at 25 nM measured after 48 hrs by wound healing assay; assay type: functional, cell-based
# Homo sapiens [8] = organism: Homo sapiens; test: Selectivity ratio of IC50 for HDAC6 (unknown origin) to IC50 for HDAC2 (unknown origin)
# [9] = Selectivity index, ratio of IC50 for human L02 cells to IC50 for human A549 cells; assay type: toxicity; conditions: L02 cells and A549 cells, read-out: Ratio IC50
# Histone deacetylase 2 = Histone deacetylase 2 (Homo sapiens, UniProt Q92769); test: Inhibition of HDAC2 (unknown origin)
# Chain of Histone deacetylase 2 (Q92769 whole entry): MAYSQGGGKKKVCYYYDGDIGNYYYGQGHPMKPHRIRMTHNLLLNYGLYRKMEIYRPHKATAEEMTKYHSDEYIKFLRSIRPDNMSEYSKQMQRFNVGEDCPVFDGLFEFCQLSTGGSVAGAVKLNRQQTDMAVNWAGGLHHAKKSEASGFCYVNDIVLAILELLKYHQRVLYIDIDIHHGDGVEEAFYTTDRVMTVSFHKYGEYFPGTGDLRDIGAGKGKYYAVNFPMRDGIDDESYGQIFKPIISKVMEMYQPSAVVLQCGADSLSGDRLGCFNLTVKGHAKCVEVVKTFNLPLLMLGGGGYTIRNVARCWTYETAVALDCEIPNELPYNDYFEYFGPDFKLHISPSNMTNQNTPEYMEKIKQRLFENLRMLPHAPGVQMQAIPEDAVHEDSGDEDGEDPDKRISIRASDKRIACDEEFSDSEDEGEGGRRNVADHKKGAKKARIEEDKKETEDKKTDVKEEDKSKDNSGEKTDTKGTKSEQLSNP
# Homo sapiens [10] = organism: Homo sapiens; test: Selectivity ratio of IC50 for HDAC6 (unknown origin) to IC50 for HDAC3 (unknown origin)
# Histone deacetylase 8 = molecular target: T1, Histone deacetylase 8 (Homo sapiens, UniProt Q9BY41); test: Inhibition of HDAC8 (unknown origin)
# T1 sequence (Q9BY41 whole entry): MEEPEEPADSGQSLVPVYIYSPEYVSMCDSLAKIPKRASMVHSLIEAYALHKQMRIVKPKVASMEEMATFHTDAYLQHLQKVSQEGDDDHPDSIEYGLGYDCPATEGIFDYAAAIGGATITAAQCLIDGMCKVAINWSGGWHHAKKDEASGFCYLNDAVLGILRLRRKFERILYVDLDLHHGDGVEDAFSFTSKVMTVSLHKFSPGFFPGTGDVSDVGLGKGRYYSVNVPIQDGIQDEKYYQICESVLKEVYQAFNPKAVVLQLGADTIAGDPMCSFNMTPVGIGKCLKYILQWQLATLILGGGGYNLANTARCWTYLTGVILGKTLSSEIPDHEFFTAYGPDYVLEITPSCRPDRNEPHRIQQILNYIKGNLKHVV
# [11] = Cytotoxicity against human L02 cells measured after 72 hrs
# HCT-116 [12] = test: Induction of apoptosis in human HCT-116 cells assessed as appearance of smaller nuclei measured after 48 hrs by Hoechst 33342 staining based assay; assay type: functional, cell-based; conditions: dose 50-200 nM, DDE = dose-dependent effect
# HCT-116 [13] = test: Induction of apoptosis in human HCT-116 cells assessed as chromatin condensation measured after 48 hrs by Hoechst 33342 staining based assay; assay type: functional, cell-based; conditions: dose 50-200 nM, DDE = dose-dependent effect
# [14] = molecular target: T2, Histone deacetylase 1/2/3 (Homo sapiens) (UniProt Q13547+O15379+Q92769); test: Inhibition of HDAC1/HDAC2/HDAC3 in human HCT-116 cells assessed as increase in accumulation of acetylated histone H3 measured after 48 hrs by Western blot analysis; assay type: cell-based; conditions: dose 200-800 nM, DDE = dose-dependent effect
# HCT-116 [15] = test: Induction of apoptosis in human HCT-116 cells measured after 48 hrs by Annexin-FITC/propidium iodide staining based flow cytometry; assay type: functional, cell-based; conditions: dose 50-200 nM, DDE = dose-dependent effect
# Histone deacetylase 3 = Histone deacetylase 3 (Homo sapiens, UniProt O15379); test: Inhibition of HDAC3 (unknown origin)
# Chain of Histone deacetylase 3 (O15379 whole entry): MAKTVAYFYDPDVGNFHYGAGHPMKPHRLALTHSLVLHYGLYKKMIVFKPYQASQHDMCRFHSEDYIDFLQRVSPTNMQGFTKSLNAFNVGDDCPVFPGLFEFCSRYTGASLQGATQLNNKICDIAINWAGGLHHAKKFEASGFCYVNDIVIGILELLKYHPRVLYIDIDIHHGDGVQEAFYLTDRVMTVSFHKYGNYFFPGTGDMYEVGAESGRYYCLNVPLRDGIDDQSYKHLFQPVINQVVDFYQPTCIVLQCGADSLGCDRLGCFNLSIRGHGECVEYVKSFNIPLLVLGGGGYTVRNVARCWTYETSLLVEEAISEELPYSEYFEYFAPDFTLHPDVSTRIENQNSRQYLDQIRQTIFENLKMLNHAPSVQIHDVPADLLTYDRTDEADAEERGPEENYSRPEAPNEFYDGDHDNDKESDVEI
# [16] = molecular target: T3, Protein deacetylase HDAC6 (Homo sapiens, UniProt Q9UBN7); test: Inhibition of HDAC6 (unknown origin)
# T3 sequence (Q9UBN7 whole entry): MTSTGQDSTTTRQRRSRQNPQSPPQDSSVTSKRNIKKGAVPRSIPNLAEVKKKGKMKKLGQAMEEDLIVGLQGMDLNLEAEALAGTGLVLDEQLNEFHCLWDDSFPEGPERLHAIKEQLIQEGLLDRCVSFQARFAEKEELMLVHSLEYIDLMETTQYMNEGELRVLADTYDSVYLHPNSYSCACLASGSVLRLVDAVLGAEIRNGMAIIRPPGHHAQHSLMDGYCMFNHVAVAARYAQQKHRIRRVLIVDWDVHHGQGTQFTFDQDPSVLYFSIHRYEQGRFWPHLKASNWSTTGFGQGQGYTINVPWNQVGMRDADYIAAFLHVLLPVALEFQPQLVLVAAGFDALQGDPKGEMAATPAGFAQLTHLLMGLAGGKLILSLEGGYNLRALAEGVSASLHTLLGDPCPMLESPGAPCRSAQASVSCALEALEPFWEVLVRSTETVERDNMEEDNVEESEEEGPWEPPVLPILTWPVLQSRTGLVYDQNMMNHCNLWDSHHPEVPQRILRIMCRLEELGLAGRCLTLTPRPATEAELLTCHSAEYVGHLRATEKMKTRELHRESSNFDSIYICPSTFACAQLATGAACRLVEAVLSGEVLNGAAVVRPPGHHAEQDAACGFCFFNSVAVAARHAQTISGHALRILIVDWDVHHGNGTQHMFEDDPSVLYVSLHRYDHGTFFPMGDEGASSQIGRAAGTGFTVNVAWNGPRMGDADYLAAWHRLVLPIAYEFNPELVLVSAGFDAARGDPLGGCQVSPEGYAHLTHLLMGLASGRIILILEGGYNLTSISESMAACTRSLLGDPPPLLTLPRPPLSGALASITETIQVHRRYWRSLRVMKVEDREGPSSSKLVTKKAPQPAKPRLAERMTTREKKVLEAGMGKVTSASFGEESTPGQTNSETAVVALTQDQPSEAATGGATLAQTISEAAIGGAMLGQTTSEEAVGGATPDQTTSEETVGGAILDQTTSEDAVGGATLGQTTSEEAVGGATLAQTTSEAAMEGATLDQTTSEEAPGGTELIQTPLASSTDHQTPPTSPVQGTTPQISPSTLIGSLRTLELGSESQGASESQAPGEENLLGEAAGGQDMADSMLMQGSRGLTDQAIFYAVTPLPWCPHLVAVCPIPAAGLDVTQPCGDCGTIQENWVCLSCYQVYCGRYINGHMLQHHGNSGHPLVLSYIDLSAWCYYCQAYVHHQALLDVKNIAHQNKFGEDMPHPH
# [17] = molecular target: T2, Histone deacetylase 1/2/3 (Homo sapiens); test: Inhibition of HDAC1/HDAC2/HDAC3 in human HCT-116 cells assessed as increase in accumulation of acetylated histone H4 measured after 48 hrs by Western blot analysis; assay type: cell-based; conditions: dose 200-800 nM, DDE = dose-dependent effect
IC50 (SW480) [nM],IC50 (HCT-116 [1]) [nM],IC50 (A549) [nM],IC50 (MCF7) [nM],SMILES,further results
> 5000,> 5000,–,–,Cc1[nH]c2ccccc2c1C1=CCN(C(=O)c2ccc(OCC(=O)NO)cc2)CC1,–
–,254,244,1180,Cc1[nH]c2cccc(F)c2c1C1=CCC(NCc2ccc(OCC(=O)NO)cc2F)CC1 (centres undefined),–
–,162,–,155,O=C(COc1ccc(CNCCc2c[nH]c3ccccc23)cc1F)NO,–
367,184,187,898,Cc1[nH]c2ccccc2c1C1=CCC(NCc2ccc(OCC(=O)NO)cc2)CC1 (centres undefined),–
–,> 10000,–,> 10000,COc1cc(OCC(=O)NO)ccc1CNCCc1c[nH]c2ccccc12,–
–,> 10000,–,> 10000,COc1cc(OCC(=O)NO)ccc1CNCCn1cnc2ccccc21,–
–,2610,–,2330,O=C(COc1cccc(CNCCc2c[nH]c3ccccc23)c1)NO,–
–,410,–,539,O=C(COc1ccc(CNCCn2cnc3ccccc32)c(F)c1)NO,–
1150,436,278,1170,O=C(COc1ccc(CNC2CC=C(c3c[nH]c4ccccc34)CC2)c(F)c1)NO (centres undefined),–
170,99,130,912,Cc1[nH]c2ccccc2c1C1=CCC(NCc2ccc(OCC(=O)NO)cc2F)CC1 (centres undefined),Activity (HCT-116 [2]): 81.8%; inhibition (HCT-116 [3]): Dde; Ratio IC50 (Homo sapiens [4]): 3; IC50 (Histone deacetylase 1): 1.6 nM; Activity (HCT-116 [5]): 91.5%; Activity (HCT-116 [6]): Dde; Activity (HCT-116 [7]): Active; Ratio IC50 (Homo sapiens [8]): 3; selectivity ratio [9]: 20; IC50 (Histone deacetylase 2): 1.9 nM; Ratio IC50 (Homo sapiens [10]): 3; IC50 (Histone deacetylase 8): 86 nM; IC50 at 72 h [11]: 2300 nM; Activity (HCT-116 [12]): Dde; Activity (HCT-116 [13]): Dde; inhibition [14]: Dde; Activity (HCT-116 [15]): Dde; IC50 (Histone deacetylase 3): 3.8 nM; IC50 [16]: 13 nM; inhibition [17]: Dde
> 5000,> 5000,–,–,O=C(COc1ccc(C(=O)NC2CC=C(c3c[nH]c4cccc(F)c34)CC2)cc1)NO (centres undefined),–

SMILES,IC50 (SW480) [nM],IC50 (HCT-116 [1]) [nM],IC50 (A549) [nM],IC50 (MCF7) [nM],further results
O=C(COc1ccc(CN2CC=C(c3c[nH]c4ccc(F)cc34)CC2)c(F)c1)NO,3860,> 5000,–,–,–
Cc1ccc2[nH]cc(C3=CCN(Cc4ccc(OCC(=O)NO)cc4F)CC3)c2c1,1950,1450,–,–,–
O=C(COc1ccc(CN2CC=C(c3c[nH]c4cccc(F)c34)CC2)cc1)NO,2310,969,–,–,–
Cc1[nH]c2ccccc2c1C1=CCN(Cc2ccc(OCC(=O)NO)cc2)CC1,697,301,615,1590,–
